Converted amounts (≈) assume the structure as drawn.
Columns and labels:
Format in all cases: functional
Escherichia coli [1] = assay: Antimicrobial activity against Escherichia coli isolate CQ26 transconjugant harboring 16S rRNA methylase RmtB and qepA by agar dilution method relative to recipient strain
Escherichia coli [2] = assay: Antimicrobial activity against Escherichia coli isolate CQ4 transconjugant harboring 16S rRNA methylase RmtB and qepA by agar dilution method relative to recipient strain
Escherichia coli [3] = assay: Antimicrobial activity against Escherichia coli isolate GZ3 PFGE type A1 harboring qepA gene by agar dilution method
Escherichia coli [4] = assay: Antimicrobial activity against Escherichia coli isolate CQ6 transconjugant harboring 16S rRNA methylase RmtB and qepA, qnrS2, aac(6')-Ib-cr gene by agar dilution method relative to recipient strain
Escherichia coli [5] = assay: Antimicrobial activity against Escherichia coli isolate CQ12 transconjugant harboring 16S rRNA methylase RmtB and qepA, qnrS2, aac(6')-Ib-cr gene by agar dilution method relative to recipient strain
Escherichia coli [6] = assay: Antimicrobial activity against Escherichia coli isolate GZ15 PFGE type G harboring qepA gene by agar dilution method
Escherichia coli [7] = assay: Antimicrobial activity against Escherichia coli isolate CQ13 transconjugant harboring 16S rRNA methylase RmtB and qnrS1 by agar dilution method relative to recipient strain
Escherichia coli [8] = assay: Antimicrobial activity against Escherichia coli isolate CQ19 PFGE type S harboring qepA gene by agar dilution method
Escherichia coli [9] = assay: Antimicrobial activity against Escherichia coli isolate GZ6 PFGE type B harboring qepA gene by agar dilution method
Escherichia coli [10] = assay: Antimicrobial activity against Escherichia coli isolate GZ2 PFGE type O harboring qepA gene by agar dilution method
Escherichia coli [11] = assay: Antimicrobial activity against Escherichia coli isolate CQ20 transconjugant harboring 16S rRNA methylase RmtB and qepA by agar dilution method relative to recipient strain
Escherichia coli [12] = assay: Antimicrobial activity against Escherichia coli isolate GZ14 transconjugant harboring 16S rRNA methylase RmtB and qepA by agar dilution method relative to recipient strain
Escherichia coli [13] = assay: Antimicrobial activity against Escherichia coli isolate CQ18 transconjugant harboring 16S rRNA methylase RmtB and qepA by agar dilution method relative to recipient strain
Escherichia coli [14] = assay: Antimicrobial activity against Escherichia coli isolate GZ12 transconjugant harboring 16S rRNA methylase RmtB and qepA by agar dilution method relative to recipient strain
Escherichia coli [15] = assay: Antimicrobial activity against Escherichia coli isolate GZ7 PFGE type N harboring qepA gene by agar dilution method
Escherichia coli [16] = assay: Antimicrobial activity against Escherichia coli isolate CQ22 transconjugant harboring 16S rRNA methylase RmtB and qnrS1 by agar dilution method relative to recipient strain
Escherichia coli [17] = assay: Antimicrobial activity against Escherichia coli isolate GZ13 transconjugant harboring 16S rRNA methylase RmtB and qepA by agar dilution method relative to recipient strain
Escherichia coli [18] = assay: Antimicrobial activity against Escherichia coli isolate CQ5 transconjugant harboring 16S rRNA methylase RmtB and qepA by agar dilution method relative to recipient strain

Compound: CCN1CCN(c2cc3c(cc2F)c(=O)c(C(=O)O)cn3C2CC2)CC1 [ENROFLOXACIN]
- fold change (FC) (Escherichia coli [1]): 2
- fold change (FC) (Escherichia coli [2]): 1
- MIC (Escherichia coli [3]): 64 µg/mL (≈ 178 µM)
- fold change (FC) (Escherichia coli [4]): 2
- fold change (FC) (Escherichia coli [5]): 4
- MIC (Escherichia coli [6]): 8 µg/mL (≈ 22.3 µM)
- fold change (FC) (Escherichia coli [7]): 8
- MIC (Escherichia coli [8]): 2 µg/mL (≈ 5.56 µM)
- MIC (Escherichia coli [9]): 16 µg/mL (≈ 44.5 µM)
- MIC (Escherichia coli [10]): 2 µg/mL (≈ 5.56 µM)
- fold change (FC) (Escherichia coli [11]): 4
- fold change (FC) (Escherichia coli [12]): 8
- fold change (FC) (Escherichia coli [13]): 1
- fold change (FC) (Escherichia coli [14]): 4
- MIC (Escherichia coli [15]): 32 µg/mL (≈ 89 µM)
- fold change (FC) (Escherichia coli [16]): 2
- fold change (FC) (Escherichia coli [17]): 2
- fold change (FC) (Escherichia coli [18]): 2

Reference: ChEMBL document CHEMBL1671858, “Coprevalence of plasmid-mediated quinolone resistance determinants QepA, Qnr, and AAC(6')-Ib-cr among 16S rRNA methylase RmtB-producing Escherichia coli isolates from pigs” (2008)
